Among the data in patent US9200268B2, “Compounds and methods for purification of serine proteases” (Portola Pharmaceuticals, Inc., priority 2012, dated 2015) are IC50 values, retold here.

For the experiment, the target named is human plasma protein factor Xa (Homo sapiens (Human), UniProt P00742). The experiment in a line: FXa inhibitory activity, IC50 determination (cleavage of paranitroanilide substrate S-2765). The format is biochemical. Conditions: factor Xa 1 nM, S2765 100 μM, Tris buffered saline pH 7.4. The source says: This example illustrates methods for evaluating the compounds, along with results obtained for such assays. As mentioned above, the compound may be selected based on its factor Xa inhibitory activity. The in vitro factor Xa activities of the compounds can be determined by various procedures known in the art. […] The IC50 value is the concentration (in nM) of the compound required to provide 50% inhibition of factor Xa proteolytic activity.
Chain of human plasma protein factor Xa (P00742 41-179): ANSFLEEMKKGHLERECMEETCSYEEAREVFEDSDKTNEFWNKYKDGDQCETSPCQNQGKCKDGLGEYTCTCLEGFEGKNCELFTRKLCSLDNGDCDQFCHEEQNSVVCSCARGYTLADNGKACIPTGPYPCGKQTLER
Chain of human plasma protein factor Xa (P00742 235-488): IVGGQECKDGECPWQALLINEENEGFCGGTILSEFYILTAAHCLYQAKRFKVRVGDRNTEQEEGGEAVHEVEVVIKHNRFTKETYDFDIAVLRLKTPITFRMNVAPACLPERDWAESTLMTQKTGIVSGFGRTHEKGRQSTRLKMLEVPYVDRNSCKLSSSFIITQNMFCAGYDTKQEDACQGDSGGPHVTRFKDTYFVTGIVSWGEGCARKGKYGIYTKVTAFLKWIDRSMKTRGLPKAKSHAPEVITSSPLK
An in vitro assay for detecting and measuring inhibition activity against factor Xa is as follows:
The substrate S-2765 (Z-D-Arg-Gly-Arg-pNA.HCl) can be obtained from Diapharma (West Chester, Ohio).
The human plasma protein factor Xa can be purchased from Haematologic Technologies (Essex Junction, Vt.).
All assays, which are performed in 96-well microtiter plates, measure proteolytic activity of the enzyme (factor Xa) by following cleavage of a paranitroanilide peptide substrate. The assay buffer used for proteolytic assays was Tris buffered saline (20 mM Tris, 150 mM NaCl, 5 mM CaCl2, 0.1% Bovine serum albumin (BSA), 5% dimethly sulfoxide (DMSO) pH 7.4). In a 96-well microtiter plate, inhibitor was serially diluted to give a range of final concentrations from 0.01 nM to 10 μM. Duplicate sets of wells were assayed and control wells without inhibitor were included. Enzyme was added to each well, (factor Xa concentration=1 nM), the plate was shaken for 5 seconds and then incubated for 5 minutes at room temperature. S2765 was added (100 μM final) and the plate was shaken for 5 seconds (final volume in each well was 200 μL). The degree of substrate hydrolysis was measured at 405 nm on a Thermomax plate reader (Molecular Devices, Sunnyvale, Calif.) for 2 minutes. The initial velocities of substrate cleavage (mOD/min), for each range of inhibitor concentrations, were fitted to a four parameter equation using Softmax data analysis software. The parameter C, derived from the resulting curve-fit, corresponded to the concentration for half maximal inhibition (IC50).
A word on the IC50: it is the concentration at which inhibition is half-maximal. Turning to `CN(C)C(=N)c1ccc(C(=O)Nc2ccc(OCC(=O)NCCCCCCN)cc2C(=O)Nc2ccc(Cl)cn2)cc1`, half-maximal inhibition (IC50) was put at 24 nM.

For `CS(=O)(=O)c1ccc(C(=O)Nc2ccc(Cl)cc2C(=O)Nc2ccc(Cl)cn2)c(NCCCCCCN)c1`, the IC50 stood at 158 nM.

With `NCCCCCCNc1cc(C(F)(F)F)ccc1C(=O)Nc1ccc(Cl)cc1C(=O)Nc1ccc(Cl)cn1`, the IC50 worked out at 615 nM.

For the compound `CS(=O)(=O)c1ccc(C(=O)Nc2ccc(Cl)cc2C(=O)Nc2ccc(Cl)cn2)c(NCCCCCCCN)c1`, the IC50 came to 320 nM.

In the case of `CN(C)C(=N)c1ccc(C(=O)Nc2ccc(OCC(=O)NCCCCCCN)cc2C(=O)Nc2ccccn2)cc1`, the concentration for half-maximal inhibition (IC50) came out at 227 nM.
